From patent US8591908B2, “Immunogen for preparation of therapeutic vaccines or drugs for treatment of hepatitis B and the producing method and use thereof” (Institute of Immunology, PLA, priority 2002, dated 2013)
“And” between values parts separate entries of the source, which are not always exact repeats. Identical values can stand only once. Ends that are not written are not given here. * marks the point of attachment. Palmitoyl = CCCCCCCCCCCCCCCC(=O)*

Key:
[1] = tested on: peripheral blood mononuclear lymphocytes of HLA-A2+ healthy person; experiment: FIG. 2: induction of lymphocyte proliferation, 3H-TdR; assay type: cell-based, human
Source text: FIG. 2 indicated the effect of inducing the proliferation of lymphocytes.

HBV-DNA transgenic mice = experiment: HBV transgenic mice: cytokines of spleen lymphocytes, ELISA (Th1/Th2); assay type: in vivo; conditions: 10, 100, 1000 U/mouse s.c., day 30; spleen lymphocytes restimulated with 10 ng/ml for 3 days
Protocol: The levels of cytokines such as IFN-γ, IL-4, etc. in supernatant were measured by the ELISA method, and the activity of the test drug (CH3(CH2)14COKSSQYIKANSKFIGITEAAASIVSPFIPLLGGGDPRVRGLYFPA) (SEQ ID NO:5) for inducing the differentiation of T cells into Th1/Th2 type was analyzed. […] The expression frequency of IFN-γ secreting cells in peripheral blood lymphocytes was measured by the ELI-SPOT method in said supernatant. […] On the 10th, 20th and 30th day after the end of the three immunizations, bloods were removed, serum isolated, and the contents of HBsAg and HBV-DNA in the serum were separately measured by the ELISA method and quantitative PCR method.
Then supernatants were collected and the secretion levels of cytokines such as TNF-α, IFN-γ, IL-4, etc. in supernatants were measured by ELISA, and the activity of the test drug for inducing the conversion of Th1/Th2 type from T cells in subjects was analyzed.

[2] = Solubility in different solution systems; assay type: physicochemical
Source text: εPA44 was soluble and stable in DMSO, but poorly soluble and stable in other solutions (see Table 5). Thus, DMSO was used as the mobile phase for SEC.

enzyme-labeled antibody = experiment: Potency/specific activity of stock solution or semifinished product, enzyme-linked plate; assay type: binding
Source text: Chromatography column AP5 20/275 POROS 50 R1 was used in the batch production. After peptide-resin was cleaved and preliminarily purified, the collected εPA44 sample was divided into 7 parts for high purification, and the effects and reproducibility for batch purification of εPA44 stock solution were furthered studied. […] The collected elution peak fractions of εPA44 were pooled and mixed homogenously, aliquots were removed for analysis. If the sample met the set standards, it was used as the stock solution and was stored at −20° C. until use. The output, yield and specific activity of the product were calculated based on the measured data.
The semifinished product to be tested was diluted to a concentration within the measurable range of the potency determination. An enzyme-linked plate( ? ) was coated, blocked, bound by enzyme-labeled antibody, and developed. The absorbance at 450 nm (A450 nm) was detected by an enzyme-labeling device, and compared to the reference of the product. The potency of εPA44 in the extract of the sample was determined, and the specific activity of the semifinished product ( ? ) was calculated.
The reference of the product was 10-fold diluted with 50% ethanol, and then was two-fold serially diluted. 100 μl dilutions were separately added to the wells on the 96-well enzyme-linket immunosorbent assay plate, each well was repeated in triplicate. Coating was carried out in refrigerator at 4° C. for 20-24 hours. The stock solution of εPA44 was diluted and coated similarly to the reference. 100 μl of 50% ethanol was added to negative control wells. After the coating was completed, 200 μl 1% calf serum was added to each well, and blocked in refrigerator at 4° C. for 2 hours. The enzyme-linket immunosorbent assay plate was dried in air, 80 μl enzyme-labeled antibody was added to each well and incubated at 37° C. for 40 minutes. The plate was washed with wash solution for 4 times and dried in air, then 50 μl of substrate solution A and 50 μl of substrate solution B were added to each well and developed at 37° C. for 15 minutes under protection from light. Then 50 μl of stop solution was added to each well. A450 nm values were detected on 550 type enzyme-linket immunosorbent assay detector. The median dilution times of the reference and the samples were calculated by program or linear regression method based on the median effect value of the reference of εPA44 (median maximum absorbance), and the potency of the test sample and the specific activity of the product were calculated according to the following formulas.

Balb/c mice = experiment: Neutralizing antibodies, double-antibody-sandwich and competitive inhibition test; assay type: in vivo
Protocol: Balb/c mice of 2-3 Months old (both male and female) were divided into 8 groups […], and were immunized with εPA44 at both postpede palmas once a week for three times at different doses: 0.001 nmol, 0.01 nmol, 0.1 nmol, 0.5 nmol, 1 nmol, 10 nmol, 20 nmol respectively, 3 weeks after the immunization, the mice were bled by removing their eyeballs and serums were collected. Antibodies were tested by the double-antibody-sandwich method. The specificity was tested by antibody competitive inhibition test using of the 10 world wide available monoclonal antibodies.

For “K(Palmitoyl)SSQYIKANSKFIGITEAAAFLPSDFFPSVGGGDPRVRGLYFPA-OH [SEQ ID NO:1, CH3(CH2)14COKSSQYIKANSKFIGITEAAAFLPSDFFPSVGGGDPRVRGLYFPA]”, the minimal effective dose ([1]; lymphocyte proliferation) was 0.1 ng, the “range with dose-effect dependence” value ([1]; lymphocyte proliferation) was 0.1 to 10 ng and the “induction of the proliferation of lymphocytes” value ([1]; with IL-2, γ-count after 3H-TdR) was “significantly induce the proliferation of lymphocytes”. The IL-4 secretion (HBV-DNA transgenic mice) was “no obvious dose-effect dependence relation”, the “secretion of IFN-γ” value (HBV-DNA transgenic mice) was “stronger” and the solubility ([2]; 0.1 mol/L PB (pH 6.8)) was 10 µg/mL. The solubility ([2]; 2% Tween80-0.1 mol/L PB(pH 6.8)) was 80 µg/mL, the solubility ([2]; 50% Acetonitrile-0.1% TFA) was 1670 µg/mL and the solubility ([2]; 50% DMSO) was 2530 µg/mL. The solubility ([2]; 50% Ethanol-10 mmol/L HCl) was 2480 µg/mL, the solubility ([2]; 50% Ethanol-10 mmol/L phosphoric acid) was 2430 µg/mL and the solubility ([2]; 50% Methanol-0.1% TFA) was 1540 µg/mL. For the same substance, the solubility ([2]; DMSO) was 11700 µg/mL, the Specific activity (enzyme-labeled antibody; semifinished product) was 13985.31 U/mg and the “potency of each vial” value (enzyme-labeled antibody; semifinished product) was 4085.53 U. The Specific activity (enzyme-labeled antibody; stock solution after reversed phase chromatography, batches 1-3 and x ± Sx, listed as εPA44) was 10265.08 U/mg and 11689.76 ± 1503.57 U/mg and 13261.42 U/mg and 11542.77 U/mg, the “specificity of induced antibodies” value (Balb/c mice; antibody competitive inhibition test with monoclonal antibodies) was “HBV neutralizing antibodies” and the “dose inducing the generation of antibody” value (Balb/c mice; serum 3 weeks after immunization) was 0.01 nmol.
